Data reported in ChEMBL document CHEMBL5260856, “Design, synthesis and biological evaluation of pyrazolo[3,4-b]pyridine derivatives as TRK inhibitors” (RSC Med Chem, 2023).

Assays:
[1] = biological target: High affinity nerve growth factor receptor (Homo sapiens, UniProt P04629); test: Inhibition of TRKA (unknown origin) using TK as substrate in presence of ATP incubated for 30 mins by HTRF KinEASE assay
[2] = biological target: T1, Serine/threonine-protein kinase PLK4 (Homo sapiens, UniProt O00444); test: Inhibition of PLK4 (unknown origin)
T1 sequence (O00444 whole entry): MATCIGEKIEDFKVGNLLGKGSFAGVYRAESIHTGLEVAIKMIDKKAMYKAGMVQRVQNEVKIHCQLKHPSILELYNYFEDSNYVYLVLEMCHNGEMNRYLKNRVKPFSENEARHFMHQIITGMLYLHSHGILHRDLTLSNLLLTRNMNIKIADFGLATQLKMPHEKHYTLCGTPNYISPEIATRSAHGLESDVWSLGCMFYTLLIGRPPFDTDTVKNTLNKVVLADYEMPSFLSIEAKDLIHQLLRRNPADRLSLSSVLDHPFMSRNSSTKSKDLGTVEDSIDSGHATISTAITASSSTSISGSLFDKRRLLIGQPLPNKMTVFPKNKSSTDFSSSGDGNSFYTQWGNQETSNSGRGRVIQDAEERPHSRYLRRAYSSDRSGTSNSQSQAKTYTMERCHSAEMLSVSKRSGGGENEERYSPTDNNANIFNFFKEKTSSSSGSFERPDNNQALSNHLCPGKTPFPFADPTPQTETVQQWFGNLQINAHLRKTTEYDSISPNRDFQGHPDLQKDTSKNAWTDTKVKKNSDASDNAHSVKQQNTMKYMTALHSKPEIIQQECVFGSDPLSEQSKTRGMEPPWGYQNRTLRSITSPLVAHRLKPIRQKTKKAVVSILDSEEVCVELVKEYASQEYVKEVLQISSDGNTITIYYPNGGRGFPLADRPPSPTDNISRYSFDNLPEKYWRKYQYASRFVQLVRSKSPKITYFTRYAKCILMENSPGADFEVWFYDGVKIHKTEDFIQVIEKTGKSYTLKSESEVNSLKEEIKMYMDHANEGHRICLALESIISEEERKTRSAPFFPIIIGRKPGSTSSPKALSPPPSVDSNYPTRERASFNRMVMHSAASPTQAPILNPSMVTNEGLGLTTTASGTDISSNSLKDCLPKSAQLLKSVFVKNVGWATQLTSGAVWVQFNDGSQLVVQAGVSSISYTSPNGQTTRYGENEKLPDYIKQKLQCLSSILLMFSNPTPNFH

[3] = biological target: Serine/threonine-protein kinase PAK 4 (Homo sapiens, UniProt O96013); test: Inhibition of PAK4 (unknown origin)
Focal adhesion kinase 1 = Focal adhesion kinase 1 (Homo sapiens, UniProt Q05397); test: Inhibition of FAK (unknown origin)
CYP2C19 = CYP2C19 (Homo sapiens, UniProt P33261); test: Inhibition of CYP2C19 in human liver microsomes using S-mephenytoin as substrate at 10 uM preincubated for 10 mins followed by NADPH addition and measured after 15 mins by LC-MS/MS analysis; format: ADME, Microsome; details: probe S-mephenytoin, time 25 min
[4] = Stability in human plasma assessed as parent compound remaining at 100 uM and measured after 60 mins by LC-MS/MS analysis; format: ADME, cell-free; details: read-out: Stability
CYP2D6 = CYP2D6 (Homo sapiens, UniProt P10635); test: Inhibition of CYP2D6 in human liver microsomes using dextromethorphan as substrate at 10 uM preincubated for 10 mins followed by NADPH addition and measured after 15 mins by LC-MS/MS analysis; format: ADME, Microsome; details: probe dextromethorphan, time 25 min
CYP1A2 = biological target: T2, CYP1A2 (Homo sapiens, UniProt P05177); test: Inhibition of CYP1A2 in human liver microsomes using phenacetin as substrate at 10 uM preincubated for 10 mins followed by NADPH addition and measured after 15 mins by LC-MS/MS analysis; format: ADME, Microsome; details: probe phenacetin, time 25 min
T2 sequence (P05177 whole entry): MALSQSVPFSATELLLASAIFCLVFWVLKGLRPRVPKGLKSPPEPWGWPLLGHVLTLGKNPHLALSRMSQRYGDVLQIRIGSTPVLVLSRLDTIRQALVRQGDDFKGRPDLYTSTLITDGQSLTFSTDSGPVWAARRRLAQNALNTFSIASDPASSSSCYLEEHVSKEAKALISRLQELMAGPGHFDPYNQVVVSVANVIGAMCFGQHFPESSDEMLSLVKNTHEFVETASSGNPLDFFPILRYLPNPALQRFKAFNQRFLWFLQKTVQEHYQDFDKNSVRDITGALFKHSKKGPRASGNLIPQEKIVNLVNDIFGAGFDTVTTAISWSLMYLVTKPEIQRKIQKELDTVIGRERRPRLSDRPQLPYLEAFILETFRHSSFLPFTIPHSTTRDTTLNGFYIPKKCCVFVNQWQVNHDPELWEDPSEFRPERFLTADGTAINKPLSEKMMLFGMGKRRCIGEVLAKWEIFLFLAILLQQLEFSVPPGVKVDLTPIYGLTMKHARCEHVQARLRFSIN

[5] = Stability in human plasma assessed as parent compound remaining at 100 uM and measured after 10 mins by LC-MS/MS analysis; format: ADME, cell-free; details: read-out: Stability
[6] = Stability in human plasma assessed as parent compound remaining at 100 uM and measured after 120 mins by LC-MS/MS analysis; format: ADME, cell-free; details: read-out: Stability
CYP2C9 = CYP2C9 (Homo sapiens, UniProt P11712); test: Inhibition of CYP2C9 in human liver microsomes using diclofenac as substrate at 10 uM preincubated for 10 mins followed by NADPH addition and measured after 15 mins by LC-MS/MS analysis; format: ADME, Microsome; details: probe diclofenac, time 25 min
[7] = Stability in human plasma assessed as half life at 100 uM and measured after 120 mins by LC-MS/MS analysis; format: ADME, cell-free
CYP3A4 = CYP3A4 (Homo sapiens, UniProt P08684); test: Inhibition of CYP3A4 in human liver microsomes using midazolam as substrate at 10 uM preincubated for 10 mins followed by NADPH addition and measured after 15 mins by LC-MS/MS analysis; format: ADME, Microsome; details: probe midazolam, time 25 min
[8] = Stability in human plasma assessed as parent compound remaining at 100 uM and measured after 30 mins by LC-MS/MS analysis; format: ADME, cell-free; details: read-out: Stability
[9] = Stability in human plasma assessed as parent compound remaining at 100 uM and measured after 0 mins by LC-MS/MS analysis; format: ADME, cell-free; details: read-out: Stability
[10] = Inhibition of tyrosine kinase (unknown origin); design: species or system Homo sapiens
KM12 = test: Antiproliferative activity against human KM12 cells assessed as cell growth inhibition incubated for 72 hrs by CCK-8 assay; format: functional, cell-based; details: KM12, 72 h
MCF7 = test: Antiproliferative activity against human MCF7 cells assessed as cell growth inhibition incubated for 72 hrs by CCK-8 assay; format: functional, cell-based; details: MCF7, 72 h

Sequence of Serine/threonine-protein kinase PAK 4 (O96013 whole entry): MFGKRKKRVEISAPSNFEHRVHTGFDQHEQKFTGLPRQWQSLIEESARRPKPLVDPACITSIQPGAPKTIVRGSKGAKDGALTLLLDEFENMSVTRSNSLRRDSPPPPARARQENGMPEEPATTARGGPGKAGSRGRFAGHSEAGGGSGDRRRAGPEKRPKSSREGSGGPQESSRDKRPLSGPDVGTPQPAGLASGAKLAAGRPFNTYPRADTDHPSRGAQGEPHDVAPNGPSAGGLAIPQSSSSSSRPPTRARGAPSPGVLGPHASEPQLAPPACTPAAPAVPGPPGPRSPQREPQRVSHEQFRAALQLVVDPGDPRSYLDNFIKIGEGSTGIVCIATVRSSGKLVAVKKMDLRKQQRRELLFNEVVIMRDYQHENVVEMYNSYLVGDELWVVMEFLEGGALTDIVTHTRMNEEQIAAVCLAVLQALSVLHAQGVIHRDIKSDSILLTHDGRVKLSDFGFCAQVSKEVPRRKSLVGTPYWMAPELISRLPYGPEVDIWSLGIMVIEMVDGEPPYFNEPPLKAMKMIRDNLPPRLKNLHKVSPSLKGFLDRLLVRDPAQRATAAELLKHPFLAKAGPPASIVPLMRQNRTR
Sequence of High affinity nerve growth factor receptor (P04629 whole entry): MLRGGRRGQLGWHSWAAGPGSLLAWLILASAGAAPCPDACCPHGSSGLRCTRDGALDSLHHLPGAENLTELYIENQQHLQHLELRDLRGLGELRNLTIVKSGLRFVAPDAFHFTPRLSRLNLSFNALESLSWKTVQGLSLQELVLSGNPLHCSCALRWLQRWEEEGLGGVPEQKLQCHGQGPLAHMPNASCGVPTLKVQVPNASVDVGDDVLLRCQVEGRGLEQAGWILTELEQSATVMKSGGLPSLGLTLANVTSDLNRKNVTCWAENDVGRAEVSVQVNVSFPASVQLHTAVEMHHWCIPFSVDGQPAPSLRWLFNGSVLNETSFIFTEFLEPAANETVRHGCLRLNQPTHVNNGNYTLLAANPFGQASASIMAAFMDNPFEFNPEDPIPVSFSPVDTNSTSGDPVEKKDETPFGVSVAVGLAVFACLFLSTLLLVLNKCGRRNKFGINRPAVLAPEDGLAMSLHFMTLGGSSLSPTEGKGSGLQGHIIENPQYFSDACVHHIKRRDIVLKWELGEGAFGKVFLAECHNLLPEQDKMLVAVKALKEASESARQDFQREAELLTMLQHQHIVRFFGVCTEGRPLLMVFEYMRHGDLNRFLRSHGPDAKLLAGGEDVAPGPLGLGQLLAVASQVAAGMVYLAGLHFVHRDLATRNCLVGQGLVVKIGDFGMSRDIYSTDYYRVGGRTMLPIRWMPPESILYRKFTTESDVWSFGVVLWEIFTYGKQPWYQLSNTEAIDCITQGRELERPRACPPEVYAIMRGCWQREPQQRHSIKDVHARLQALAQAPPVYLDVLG
Sequence of Focal adhesion kinase 1 (Q05397 whole entry): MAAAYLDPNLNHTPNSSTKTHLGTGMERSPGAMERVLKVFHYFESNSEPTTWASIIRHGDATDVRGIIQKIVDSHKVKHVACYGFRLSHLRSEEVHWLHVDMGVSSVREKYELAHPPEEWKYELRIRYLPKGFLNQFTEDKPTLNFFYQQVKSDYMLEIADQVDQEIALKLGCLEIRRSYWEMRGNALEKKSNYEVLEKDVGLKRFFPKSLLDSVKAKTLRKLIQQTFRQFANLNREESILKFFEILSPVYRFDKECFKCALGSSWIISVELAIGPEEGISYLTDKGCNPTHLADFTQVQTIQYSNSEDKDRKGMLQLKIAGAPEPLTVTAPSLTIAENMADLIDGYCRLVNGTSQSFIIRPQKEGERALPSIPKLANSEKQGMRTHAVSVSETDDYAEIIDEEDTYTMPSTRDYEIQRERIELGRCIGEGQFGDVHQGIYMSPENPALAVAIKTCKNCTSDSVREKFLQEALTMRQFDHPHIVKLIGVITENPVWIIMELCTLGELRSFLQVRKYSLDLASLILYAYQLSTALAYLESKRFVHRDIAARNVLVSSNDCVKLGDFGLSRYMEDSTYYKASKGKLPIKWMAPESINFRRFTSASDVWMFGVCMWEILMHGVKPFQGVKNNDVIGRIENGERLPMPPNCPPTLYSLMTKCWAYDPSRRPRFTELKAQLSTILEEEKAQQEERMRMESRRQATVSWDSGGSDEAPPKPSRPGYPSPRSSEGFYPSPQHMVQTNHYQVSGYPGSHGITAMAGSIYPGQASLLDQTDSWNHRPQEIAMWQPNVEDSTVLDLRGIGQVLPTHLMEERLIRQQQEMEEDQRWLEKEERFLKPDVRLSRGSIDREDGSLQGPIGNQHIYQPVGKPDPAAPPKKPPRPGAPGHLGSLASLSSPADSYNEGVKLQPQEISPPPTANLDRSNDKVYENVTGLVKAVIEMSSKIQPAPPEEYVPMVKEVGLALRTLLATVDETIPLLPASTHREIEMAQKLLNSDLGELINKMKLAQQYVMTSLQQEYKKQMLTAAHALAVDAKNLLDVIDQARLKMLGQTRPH
Sequence of CYP3A4 (P08684 whole entry): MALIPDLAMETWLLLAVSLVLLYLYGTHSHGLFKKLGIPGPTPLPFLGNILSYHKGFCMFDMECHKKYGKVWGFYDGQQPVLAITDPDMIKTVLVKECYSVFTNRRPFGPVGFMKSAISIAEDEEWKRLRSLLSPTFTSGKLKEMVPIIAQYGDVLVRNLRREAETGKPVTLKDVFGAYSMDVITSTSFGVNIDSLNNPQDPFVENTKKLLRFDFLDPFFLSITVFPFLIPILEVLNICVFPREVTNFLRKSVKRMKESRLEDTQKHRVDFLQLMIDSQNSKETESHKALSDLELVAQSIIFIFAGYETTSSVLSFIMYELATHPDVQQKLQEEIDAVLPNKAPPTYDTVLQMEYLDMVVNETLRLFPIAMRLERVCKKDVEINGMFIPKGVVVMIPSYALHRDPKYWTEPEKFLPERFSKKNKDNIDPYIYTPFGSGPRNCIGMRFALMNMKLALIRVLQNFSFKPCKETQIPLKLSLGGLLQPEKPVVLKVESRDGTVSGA
Sequence of CYP2C19 (P33261 whole entry): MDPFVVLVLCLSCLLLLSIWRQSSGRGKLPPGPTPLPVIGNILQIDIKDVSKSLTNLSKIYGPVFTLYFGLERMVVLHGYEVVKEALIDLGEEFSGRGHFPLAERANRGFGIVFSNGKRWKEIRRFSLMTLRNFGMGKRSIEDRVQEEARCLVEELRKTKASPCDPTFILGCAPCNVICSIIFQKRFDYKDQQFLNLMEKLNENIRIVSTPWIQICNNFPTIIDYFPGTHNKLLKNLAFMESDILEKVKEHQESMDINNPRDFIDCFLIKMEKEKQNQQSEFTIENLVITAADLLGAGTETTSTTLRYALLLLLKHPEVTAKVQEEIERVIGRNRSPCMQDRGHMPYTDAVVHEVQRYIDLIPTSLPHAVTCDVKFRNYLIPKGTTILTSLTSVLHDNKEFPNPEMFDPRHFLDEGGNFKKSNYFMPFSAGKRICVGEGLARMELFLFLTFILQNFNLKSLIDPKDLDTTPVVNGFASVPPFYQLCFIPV
Sequence of CYP2C9 (P11712 whole entry): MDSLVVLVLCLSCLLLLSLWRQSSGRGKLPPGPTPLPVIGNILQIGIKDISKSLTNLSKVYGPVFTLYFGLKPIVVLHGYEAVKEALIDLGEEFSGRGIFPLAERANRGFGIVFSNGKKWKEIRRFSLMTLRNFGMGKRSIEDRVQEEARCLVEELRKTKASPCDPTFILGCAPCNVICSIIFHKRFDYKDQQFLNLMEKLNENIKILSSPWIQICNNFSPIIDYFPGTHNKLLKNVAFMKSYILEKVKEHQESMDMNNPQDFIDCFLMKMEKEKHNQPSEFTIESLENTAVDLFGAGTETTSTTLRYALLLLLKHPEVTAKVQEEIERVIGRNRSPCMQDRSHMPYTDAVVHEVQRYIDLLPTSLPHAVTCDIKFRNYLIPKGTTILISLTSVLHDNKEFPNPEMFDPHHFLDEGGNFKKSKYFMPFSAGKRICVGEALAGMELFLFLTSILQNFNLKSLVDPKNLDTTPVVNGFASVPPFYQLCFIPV
Sequence of CYP2D6 (P10635 whole entry): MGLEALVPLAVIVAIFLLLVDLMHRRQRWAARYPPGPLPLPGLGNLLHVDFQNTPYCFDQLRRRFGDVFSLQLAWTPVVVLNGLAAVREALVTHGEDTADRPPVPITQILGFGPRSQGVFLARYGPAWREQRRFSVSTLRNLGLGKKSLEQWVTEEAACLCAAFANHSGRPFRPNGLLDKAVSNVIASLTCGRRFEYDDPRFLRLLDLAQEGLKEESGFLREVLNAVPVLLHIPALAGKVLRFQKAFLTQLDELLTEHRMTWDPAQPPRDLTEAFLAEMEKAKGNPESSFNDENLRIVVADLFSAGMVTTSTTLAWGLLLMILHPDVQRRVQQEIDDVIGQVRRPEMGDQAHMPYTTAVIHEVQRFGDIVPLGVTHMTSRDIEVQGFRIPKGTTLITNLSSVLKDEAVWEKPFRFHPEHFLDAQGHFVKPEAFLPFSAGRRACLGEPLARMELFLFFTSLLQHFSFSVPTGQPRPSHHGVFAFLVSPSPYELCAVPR

SMILES: CN1CCN(C(=O)c2ccc(Nc3n[nH]c4ncc(Cc5cc(F)ccc5F)cc34)cc2)CC1
- IC50 [1]: 389 nM

SMILES: O=C(c1cccc(Nc2n[nH]c3ncc(Cc4ccc(F)cc4)cc23)c1)N1CCOCC1
- IC50 [1]: 2780 nM

SMILES: O=C(c1cccc(Nc2n[nH]c3ncc(Cc4cccc(C(F)(F)F)c4)cc23)c1)N1CCOCC1
- IC50 [1]: 16700 nM

SMILES: O=C(c1cccc(Nc2n[nH]c3ncc(Cc4c(F)cccc4F)cc23)c1)N1CCOCC1
- IC50 [1]: 838 nM

SMILES: O=C(c1ccc(Nc2n[nH]c3ncc(Cc4cc(F)ccc4F)cc23)cc1)N1CCNCC1
- IC50 [1]: 409 nM

SMILES: O=C(c1cccc(-c2n[nH]c3ncc(Cc4cc(F)ccc4F)cc23)c1)N1CCC[C@H](O)C1
- IC50 [2]: 1320 nM
- IC50 [3]: > 100000 nM
- IC50 (Focal adhesion kinase 1): > 100000 nM

SMILES: O=C(c1cccc(-c2n[nH]c3ncc(Cc4cc(F)ccc4F)cc23)c1)N1CCC[C@@H](O)C1
- IC50 [2]: 690 nM
- IC50 [3]: > 100000 nM
- IC50 (Focal adhesion kinase 1): > 100000 nM

SMILES: O=C(c1cccc(Nc2n[nH]c3ncc(Cc4ccc(F)c(F)c4)cc23)c1)N1CCOCC1
- IC50 [1]: > 100000 nM

SMILES: NC1CCN(C(=O)c2cccc(Nc3n[nH]c4ncc(Cc5cc(F)ccc5F)cc34)c2)CC1
- IC50 [1]: 437 nM

SMILES: O=C(c1cccc(Nc2n[nH]c3ncc(Cc4cc(F)cc(F)c4)cc23)c1)N1CCOCC1
- IC50 [1]: 700 nM

SMILES: O=C(c1cccc(Nc2n[nH]c3ncc(Cc4cc(F)ccc4F)cc23)c1)N1CCCC(O)C1 (configuration not stated)
- IC50 [1]: 205 nM

SMILES: O=C(c1ccc(Nc2n[nH]c3ncc(Cc4cc(F)ccc4F)cc23)cc1)N1CCCC(O)C1 (configuration not stated)
- IC50 [1]: 156 nM

SMILES: O=C(c1ccc(Nc2n[nH]c3ncc(Cc4cc(F)ccc4F)cc23)cc1)N1CCOCC1
- IC50 [1]: 980 nM

SMILES: O=C(c1cccc(-c2n[nH]c3ncc(Cc4cc(F)ccc4F)cc23)c1)N1CCCC(O)C1 (configuration not stated)
- inhibition at 0.25 h, 10 µM (CYP2C19): 48.6%
- remaining at 1 h, 100 µM [4]: 93.6%
- inhibition at 0.25 h, 10 µM (CYP2D6): 25.8%
- inhibition at 0.25 h, 10 µM (CYP1A2): 16.6%
- remaining at 10 min, 100 µM [5]: 104%
- remaining at 2 h, 100 µM [6]: 89.1%
- IC50 [2]: 1650 nM
- inhibition at 0.25 h, 10 µM (CYP2C9): 66.6%
- half-life at 100 µM [7]: > 4.82 h
- inhibition at 0.25 h, 10 µM (CYP3A4): 0%
- remaining at 0.5 h, 100 µM [8]: 88%
- IC50 [3]: > 100000 nM
- remaining at 0 h, 100 µM [9]: 100%
- IC50 (Focal adhesion kinase 1): > 100000 nM

SMILES: O=C(c1cccc(Nc2n[nH]c3ncc(Cc4cccc(F)c4F)cc23)c1)N1CCOCC1
- IC50 [1]: 1970 nM

SMILES: O=C(c1cccc(-c2n[nH]c3ncc(Cc4cc(F)ccc4F)cc23)c1)N1CCC(O)CC1
- IC50 [1]: 254 nM

SMILES: O=C(c1cccc(Nc2n[nH]c3ncc(Cc4cc(F)c(F)c(F)c4)cc23)c1)N1CCOCC1
- IC50 [1]: 660 nM

SMILES: O=C(Nc1cnn2ccc(N3CCC[C@@H]3c3cc(F)ccc3F)nc12)N1CC[C@H](O)C1 [LAROTRECTINIB]
- IC50 [10]: < 20 nM
- IC50 (KM12): 12 nM
- IC50 (MCF7): > 40000 nM
